Data on 13 compounds can be found in US20240130994A1, “IONIC LIQUID FORMULATIONS FOR TREATING DIABETES” (i2O Therapeutics, Inc., priority 2020, published 2024).

“Also recorded” adds a separate entry of the source. Where two headings read alike, the source gives them in different places.

The nature of series [1]: Physical form of choline-based ionic liquids at room temperature. The class given is physicochemical. Here is the method:
Several ionic liquids comprising choline as a cation and various anions were synthesized. […] For anions not miscible with the aqueous choline bicarbonate solution, a co-solvent, such as ethanol, was added until a homogenous mixture formed. The mixture was stirred at room temperature until CO2 evolution ceased. Solvent was removed by rotary evaporation at 60° C. for 20 minutes, and each product was dried in a vacuum oven for 48 hours at 60° C.

Series [2] concerns non-diabetic male Wistar rats. Description: 30-day daily oral gavage safety study. Here is the method:
Adult non-diabetic male Wistar rats were dosed daily for 30 days via oral gavage with either 25 or 100 uL Choline-Cinnamic Acid 1:1.5. Two placebo groups received either 25 or 100 uL saline. Animals were observed daily for general health and weight recorded. On day 31, all animals were euthanized, and tissue, blood and plasma samples collected for analysis.

In series [3] the test system is non-diabetic male Wistar rats. Nature of the series: Blood glucose levels after intrajejunal injection in fasted non-diabetic rats. Format: in vivo, rat. As to conditions: for effect on blood glucose levels: 100 μL. On the procedure:
About 250 μL of blood was collected at regular intervals in order to determine the blood glucose level. The obtained values, plotted as mean percent change±standard error in blood glucose levels with respect to initial reading (n=3) versus time, are shown in FIG. 7.
About 250 μL of blood was collected at regular intervals in order to determine the blood glucose level. The obtained values, plotted as mean percent change±standard error in blood glucose levels with respect to initial reading (n=3) versus time, are shown in FIG. 8.
The obtained values, plotted as mean percent change±standard error in blood glucose levels with respect to initial reading (n=4) versus time, are shown in FIG. 9.

In series [4] the test system is non-diabetic male Wistar rats. Nature of the series: Blood glucose levels after subcutaneous injection or liquid gavage in fasted non-diabetic rats. The class given is in vivo, rat. Here is the method: A fasting control group was dosed orally with a saline solution. About 250 μL of blood was collected at regular intervals in order to determine the blood glucose level. The obtained values, plotted as mean percent change±standard error in blood glucose levels with respect to initial reading (n=4) versus time, are shown in FIG. 10. […] About 250 μL of blood was collected at regular intervals in order to determine the blood glucose level. The obtained values, plotted as mean percent change±standard error in blood glucose levels with respect to initial reading (n=4) versus time, are shown in FIG. 11.

In series [5] the test system is Streptozocin-induced diabetic male Wistar rats. Description: Blood glucose levels after oral liquid gavage in rat model of Type 1 diabetes. Format: in vivo. As to conditions: Type 1 diabetes model rats. Here is the method:
About 250 μL of blood was collected at regular intervals in order to determine the blood glucose level. The obtained values, plotted as mean percent change±standard error in blood glucose levels with respect to initial reading (n=4) versus time, are shown in FIG. 11.

Series [6] deals with Streptozotocin-induced diabetic male Wistar rats. Nature of the series: Plasma insulin after administration in rat model of Type 1 diabetes. Format: in vivo. As to conditions: subcutaneous injection, oral liquid gavage or jejunum catheter. Here is the method: A fasting control group was not treated. About 250 μL of blood was collected at regular intervals in order to determine the insulin serum concentration.

Series [7] concerns non-diabetic male Wistar rats. Nature of the series: Glucose excretion in urine after intrajejunal injection. Format: in vivo, rat. As to conditions: intrajejunal injection at varying doses, urine from bladder 1.5 hours post-injection. Here is the method: At 1.5 hours post-injection, urine was sampled from the bladder to determine glucose concentration. The obtained glucose concentration values, plotted as percent change in blood glucose levels with respect to initial reading versus dose level and change in glucose concentration in the urine collected from the bladder versus dose level (n=1), are shown in FIG. 13.

The conditions of series [8]: male, Wistar, rat, in vivo.
Experimental: (§1) Adult non-diabetic male Wistar rats were fasted overnight but given free access to water and subsequently dosed via intrajejunal injection with liraglutide and choline-hydrocinnamic acid. A fasting control group was dosed with a saline solution via intrajejunal injection. About 250 L of blood was collected at hourly intervals in order to determine the liraglutide serum concentration.
(§2) Adult non-diabetic male Wistar rats were fasted overnight but given free access to water and subsequently dosed via intrajejunal injection with liraglutide and one of various choline-based ionic liquids.
For series [9] the following is noted: in the presence of well-known permeation enhancers; cited from earlier work.
Series [10] in a line: Liraglutide serum concentration after intrajejunal injection of liraglutide with choline-based ionic liquid. The following applies: for Peak 5-Hour Liraglutide Concentration: non-diabetic rats.
Experimental: as §1, §2
[11] abbreviates: cation:anion 1:1, room temperature.
The mark [12] stands for this setting: cation:anion 1:2, room temperature.
Where [13] appears, read: cation:anion 2:1, room temperature.

Regarding `O=C(O)C=Cc1ccccc1` [Cinnamic Acid], the “Physical Form (Ratios Listed as Cation:Anion)” value in series [1] (setting [11]) is “Liquid at 1:1, 1:1.5, 1:2”. In series [1] (cation:anion 1:1.5, room temperature), the “Physical Form (Ratios Listed as Cation:Anion)” value is “Liquid at 1:1, 1:1.5, 1:2”. Besides, the “Physical Form (Ratios Listed as Cation:Anion)” value in series [1] (setting [12]) was “Liquid at 1:1, 1:1.5, 1:2”. Moreover, the “appearance and physical form” value in [1] (room temperature, ratio as in label) was “viscous yellow liquids”. Moreover, in [2] (25 or 100 uL daily oral gavage for 30 days, rats), the “plasma indicators of organ toxicity vs placebo” value is given as “not statistically significantly different”. Also, in series [2] (rat, in vivo, po), the “IHC staining of tight junction proteins Claudin-1 and Occludin of GI tract tissues vs placebo” value is listed as “no difference”; the “blood cell counts vs placebo” value is “not statistically significantly different”; the “histological examination (H&E) of organs and GI tract tissues vs saline placebo” value is “no significant difference”.
On to `CC(C)=CCCC(C)CC(=O)O` (centres unmarked) [Citronellic Acid], for which the “Physical Form (Ratios Listed as Cation:Anion)” value in series [1] (setting [11]) is reported as “Liquid at 2:1, 1:1, 1:2”; in series [1] (setting [12]) it was “Liquid at 2:1, 1:1, 1:2”; in series [1] (setting [13]) it was “Liquid at 2:1, 1:1, 1:2”. Moreover, the “effect on blood glucose level” value in [3] (10, 20, 50 and 100 μL) is recorded as “dropped in a dose-dependent manner”. In series [3] (50 μL dose), the “blood glucose levels, % of starting levels” value was “about 50%”. Moreover, the “effect on blood glucose levels” value in [3] is “pronounced decrease in blood glucose levels”; in series [4] (oral liquid gavage, listed as choline-citronellic acid), “reduced blood glucose levels; also recorded: dropped and recovered slowly with time”; in series [4] (subcutaneous injection), “reduced blood glucose levels”; in series [5], “continued to drop”. In series [3] (100 μL dose), the “drop in blood glucose level from baseline” value is given as “about 70%”. Besides, the “insulin secretion (plasma insulin concentration)” value in series [6] is listed as “Stimulation of insulin secretion was observed”. In series [7], the “glucose concentration in the urine” value is on record as “increasing glucose concentration in the urine”.
In the case of `CCCCC/C=C\C/C=C\CCCCCCCC(=O)O` [Linoleic Acid], the “Physical Form (Ratios Listed as Cation:Anion)” value in [1] (setting [11]) is on record as “Solid”. Further, the “Physical Form (Ratios Listed as Cation:Anion)” value in series [1] (setting [12]) is on record as “Liquid”. In series [8], the “Peak 5-Hour Liraglutide Concentration” value turned out to be 44 ng/mL and the “fold improvement of liraglutide concentration over choline-citronellic acid” value is listed as “about 10 fold”.
For the compound `CCCCCCCC(=O)O` [Octanoic Acid], the “Physical Form (Ratios Listed as Cation:Anion)” value in [1] (setting [11]) is reported as “Liquid”; in series [1] (setting [12]), “Solid”. Further, the “effect on blood glucose levels” value in series [3] was “neither choline-octanoic acid nor choline-octenoic acid decreased blood glucose levels”.
In the case of `CCCCCCCCCCC(=O)O` [Undecanoic Acid], the “Physical Form (Ratios Listed as Cation:Anion)” value in [1] (setting [11]) was “Solid at 1:1”.
On the same count and under the same terms, to `COc1cc(C(=O)O)ccc1O` [Vanillic Acid] belongs “Solid at 1:1”.
As to `CC(C)=CCCC(C)CC(=O)O` (centres unmarked) [citronellic acid alone, citronellic acid, reference compound], in series [3] (38 μL dose (acid content of 50 μL ionic liquid)), the “blood glucose levels, % of starting levels” value is reported as “about 30%”.
Regarding `CCCCCCCCCCCCCCCC(=O)N[C@@H](CCC(=O)NCCCC[C@H](NC(=O)[C@H](C)NC(=O)[C@H](C)NC(=O)[C@H](CCC(N)=O)NC(=O)CNC(=O)[C@H](CCC(=O)O)NC(=O)[C@H](CC(C)C)NC(=O)[C@H](Cc1ccc(O)cc1)NC(=O)[C@H](CO)NC(=O)[C@H](CO)NC(=O)[C@@H](NC(=O)[C@H](CC(=O)O)NC(=O)[C@H](CO)NC(=O)[C@@H](NC(=O)[C@H](Cc1ccccc1)NC(=O)[C@@H](NC(=O)CNC(=O)[C@H](CCC(=O)O)NC(=O)[C@H](C)NC(=O)[C@@H](N)Cc1cnc[nH]1)[C@@H](C)O)[C@@H](C)O)C(C)C)C(=O)N[C@@H](CCC(=O)O)C(=O)N[C@@H](Cc1ccccc1)C(=O)N[C@H](C(=O)N[C@@H](C)C(=O)N[C@@H](Cc1c[nH]c2ccccc12)C(=O)N[C@@H](CC(C)C)C(=O)N[C@H](C(=O)N[C@@H](CCCNC(=N)N)C(=O)NCC(=O)N[C@@H](CCCNC(=N)N)C(=O)NCC(=O)O)C(C)C)[C@@H](C)CC)C(=O)O` [liraglutide], in series [9], the absorption of liraglutide result is “only minute absorption”.
`Cc1ccc(S(=O)(=O)O)cc1` [p-Toluenesulfonic Acid]: the “Physical Form (Ratios Listed as Cation:Anion)” value in [1] (setting [11]) was “Solid”; in series [1] (setting [12]) it was “Liquid”.
Regarding `O=C(O)CCC(=O)C(=O)O` [α-Ketoglutaric Acid], in series [1] (setting [13]), the “Physical Form (Ratios Listed as Cation:Anion)” value is “Liquid at 2:1”.
As for Choline-Octenoic acid, the “effect on blood glucose levels” value in series [3] is on record as “neither choline-octanoic acid nor choline-octenoic acid decreased blood glucose levels”. For the same compound, the “Peak 5-Hour Liraglutide Concentration” value in series [10] (liraglutide with the ionic liquid, intrajejunal injection) is reported as 201 ng/mL.
For Dihydrobenzoic Acid, the “Physical Form (Ratios Listed as Cation:Anion)” value in [1] (setting [11]) was “Solid at 1:1”.
Take “Hydrocinnamic Acid (3-Phenylpropionic Acid)”: the “Physical Form (Ratios Listed as Cation:Anion)” value in [1] (setting [11]) is “Liquid at 1:1, 1:2”; in series [1] (setting [12]), “Liquid at 1:1, 1:2”. Further, the “blood concentration of liraglutide relative to those reported in the literature” value in series [10] (liraglutide with choline-hydrocinnamic acid vs Buckley et al.) was “approximately 4,400 fold”. The “liraglutide serum concentration” value in [10] (liraglutide with choline-hydrocinnamic acid, intrajejunal injection, rats) is recorded as “surprisingly high serum concentration”. Also, the “Peak 5-Hour Liraglutide Concentration” value in series [10] (liraglutide with the ionic liquid, intrajejunal injection, listed as Choline-Hydrocinnamic acid) is recorded as 2086 ng/mL; in [10] (liraglutide with the ionic liquid, intrajejunal injection, listed as choline-hydrocinnamic acid), “greater than 2000 ng/mL”. In addition, the “fold improvement of liraglutide concentration over choline-citronellic acid” value in [10] (liraglutide with the ionic liquid, intrajejunal injection, rats) came out at 500 fold.
